Results published in patent US20170101438A1, “COSMETIC OR PHARMACEUTICAL METHODS FOR THE TREATMENT AND/OR CARE OF THE SKIN AND/OR HAIR USING TRIPEPTIDES CAPABLE OF STIMULATING CYCLIC ADENOSINE MONOPHOSPHATE SYNTHESIS” (Lipotec, S.A., priority 2009, published 2017).

Experiments:
[1] = tested on: human G361 melanocyte cell line; test: cAMP synthesis stimulation assay (competitive ELISA); assay type: cell-based; details: G361 cells, normalized to average basal cAMP values
Procedure: cAMP synthesis stimulation was assessed in the human G361 melanocyte cell line in the presence of the peptides of the invention. The cells were seeded (10^6 cells/plate 25 cm^2) and incubated for 24 hours in McCoy's complete medium, after which the peptides were added to 10 μM and were incubated for another 24 hours. 40 μM forskolin was used as a positive control. The cells were centrifuged and the supernatants were collected, and the cAMP levels were determined by carrying out a competitive ELISA assay following the protocols of the commercial kit (Cayman, Ref 0.581001)

[2] = tested on: human G361 melanocyte cell line; test: Melanogenesis stimulation (melanin extracted, absorbance at 470 nm); assay type: cell-based; details: 4 days, G361 cells, normalized to number of cells
Procedure: A human G361 melanocyte cell line was incubated for 4 days on a 12-well plate in presence of the peptide at various concentrations, after which the cells were trypsinized, the melanin was extracted and was quantified by measuring the absorbance at 470 nm in a spectrophotometer. The values obtained were normalized with regards to the number of cells. The concentration of melanin was determined in pg/cell using a standard regression analysis obtained with synthetic melanin at known concentrations.

| Compound | cAMP increase ([1]; positive control 40 μM) [%] | Melanin synthesis stimulation ([2]; 10 μM) [%] | Melanin synthesis stimulation ([2]; 50 μM) [%] | Melanin synthesis stimulation ([2]; 100 μM) [%] | cAMP increase ([1]; peptide 10 μM, 24 hours) [%] |
| --- | --- | --- | --- | --- | --- |
| C=C[C@@]1(C)CC(=O)[C@]2(O)[C@@]3(C)[C@@H](O)CCC(C)(C)[C@@H]3[C@H](O)[C@H](OC(C)=O)[C@@]2(C)O1 [Forskolin, reference compound] | 117 |  |  |  |  |
| Palm-L-Tyr-L-Tyr-L-Met-NH2 |  | 64 | 79 | 138 | 57 |
